Read-outs that look alike come from different tables or passages of the source.
Assays:
HUVEC cells = test: CCK-8 cell viability: alleviation of proliferative toxicity of anti-tumor agents on HUVEC cells (Tables 7-1, 7-2); format: cell-based; details: Homo sapiens, 24 h, NO-NSAID 100 μM, percentage increase in viable cells vs anti-tumor agent alone, read-out: Response rate % (average)
Procedure, shortened: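 Viability was measured by CCK-8 after 24-48 h of culture. Cells received anti-tumor agent in DMSO with or without co-added NO-NSAID (dissolved in ethanol or sterile water), and results were corrected against the matching NO-NSAID solvent control.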

[1] = system: hand-foot syndrome induced by anti-tumor agents; test: Prevention of hand-foot syndrome induced by anti-tumor agents in rats, NO-NSAID ointment on hind paws (Table 2-2); format: in vivo, SD rats; details: Rattus norvegicus, topical, read-out: Control rate; for responders at 1 %: ointment 1% wt
Procedure, shortened: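 Female SD rats (8 weeks, ~200 g; 10/group) received anti-tumour agents by daily oral gavage in Cremophor EL:ethanol 1:1 diluted ~3× with PBS. NO-NSAID or blank ointment was applied to hind paws once daily, 4 h restrained, then wiped off. Control rate = blank-group minus treated-group hand-foot syndrome incidence.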

SMILES: CC(=O)Oc1ccccc1C(=O)OCc1no[n+]([O-])c1C(N)=O [Compound A6]
- activation at 100 µM (HUVEC cells; Afatinib (10 μM)): 45%
- activation at 100 µM (HUVEC cells; Anlotinib (5 μM)): 50%
- activation at 100 µM (HUVEC cells; Apatinib (10 μM)): 41%
- activation at 100 µM (HUVEC cells; Axitinib (10 μM)): 22%
- activation at 100 µM (HUVEC cells; Cabozantinib (5 μM)): 0%
- activation at 100 µM (HUVEC cells; Dabrafenib (10 μM)): 21%
- activation at 100 µM (HUVEC cells; Dacomitinib (5 μM)): 75%
- activation at 100 µM (HUVEC cells; Encorafenib (5 μM)): 51%
- activation at 100 µM (HUVEC cells; Erdafitinib (10 μM)): 56%
- activation at 100 µM (HUVEC cells; Everolimus (5 μM)): 52%
- activation at 100 µM (HUVEC cells; Famitinib (5 μM)): 66%
- activation at 100 µM (HUVEC cells; Fruquintinib (10 μM)): 53%
- activation at 100 µM (HUVEC cells; Gefitinib (10 μM)): 77%
- activation at 100 µM (HUVEC cells; Infigratinib (15 μM)): 32%
- activation at 100 µM (HUVEC cells; Lapatinib (5 μM)): 41%
- activation at 100 µM (HUVEC cells; Lenvatinib (10 μM)): 23%
- activation at 100 µM (HUVEC cells; Olmutinib (10 μM)): 28%
- activation at 100 µM (HUVEC cells; Regorafenib (5 μM)): 66%
- activation at 100 µM (HUVEC cells; Selumetinib (5 μM)): 64%
- activation at 100 µM (HUVEC cells; Sorafenib (5 μM)): 24%
- activation at 100 µM (HUVEC cells; Sunitinib (5 μM)): 58%
- activation at 100 µM (HUVEC cells; Vemurafenib (5 μM)): 42%
- responders at 1 % ([1]; 120 h, Sorafenib 80 mg/kg once a day, Days 5): 66.7%
- responders at 1 % ([1]; 360 h, Encorafenib 80 mg/kg once a day, Days 15): 40%
- responders at 1 % ([1]; 432 h, Cabozantinib 50 mg/kg once a day, Days 18): 40%
- responders at 3 % ([1]; 432 h, Cabozantinib 50 mg/kg once a day, ointment 3% wt, Days 18): 42.9%
